Source: ChEMBL document CHEMBL5212743, “Selectivity Literature for EUbOPEN Chemogenomics Library wave 3” (2023)
Values belong to the molecule of their own block, whether it stands above or below them.

How the values were obtained:
[1] = molecular target: T1, Serine/threonine-protein kinase LATS2 (Homo sapiens) (UniProt Q9NRM7); experiment: Selectivity interaction (KinomeScan (DiscoverX)) EUB0000328a LATS2; conditions: at 1 µM
T1 sequence (whole entry): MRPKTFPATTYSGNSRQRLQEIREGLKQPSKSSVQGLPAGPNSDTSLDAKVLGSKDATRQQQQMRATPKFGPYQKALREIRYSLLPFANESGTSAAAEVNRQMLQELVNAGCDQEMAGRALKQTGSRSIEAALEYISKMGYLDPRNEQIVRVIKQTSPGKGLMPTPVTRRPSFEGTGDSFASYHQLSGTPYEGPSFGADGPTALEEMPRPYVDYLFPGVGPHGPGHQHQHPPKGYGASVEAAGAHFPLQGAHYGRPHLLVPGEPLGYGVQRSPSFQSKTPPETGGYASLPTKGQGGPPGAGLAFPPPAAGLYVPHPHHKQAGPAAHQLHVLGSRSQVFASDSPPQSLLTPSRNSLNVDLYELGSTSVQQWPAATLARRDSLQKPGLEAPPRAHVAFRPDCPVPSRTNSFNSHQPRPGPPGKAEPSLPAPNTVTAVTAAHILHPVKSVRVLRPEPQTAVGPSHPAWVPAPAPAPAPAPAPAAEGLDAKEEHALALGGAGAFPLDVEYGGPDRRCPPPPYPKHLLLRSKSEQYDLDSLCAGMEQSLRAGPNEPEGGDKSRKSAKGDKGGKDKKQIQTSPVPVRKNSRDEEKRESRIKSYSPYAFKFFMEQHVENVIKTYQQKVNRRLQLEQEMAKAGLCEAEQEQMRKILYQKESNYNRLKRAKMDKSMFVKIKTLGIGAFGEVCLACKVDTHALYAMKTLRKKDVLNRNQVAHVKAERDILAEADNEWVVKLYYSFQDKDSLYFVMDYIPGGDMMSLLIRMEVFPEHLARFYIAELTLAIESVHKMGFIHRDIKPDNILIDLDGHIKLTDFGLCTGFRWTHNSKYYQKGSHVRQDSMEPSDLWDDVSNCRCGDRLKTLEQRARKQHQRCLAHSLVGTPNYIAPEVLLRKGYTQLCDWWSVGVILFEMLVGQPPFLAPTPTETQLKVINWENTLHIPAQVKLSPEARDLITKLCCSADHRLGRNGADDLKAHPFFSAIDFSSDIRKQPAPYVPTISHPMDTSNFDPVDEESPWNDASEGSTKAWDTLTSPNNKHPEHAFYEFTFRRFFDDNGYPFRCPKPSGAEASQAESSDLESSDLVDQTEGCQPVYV

[2] = molecular target: Sodium-dependent serotonin transporter (Homo sapiens) (UniProt P31645); experiment: Selectivity interaction (Enzyme panel (CEREP ligand profiling)) EUB0000328a SLC6A4; conditions: at 10 µM
[3] = molecular target: T2, Gamma-aminobutyric acid receptor subunit alpha-1 (Homo sapiens, UniProt P14867); experiment: Selectivity interaction (GPCR panel (PDSP screen)) EUB0000328a GABRA1
T2 sequence (P14867 whole entry): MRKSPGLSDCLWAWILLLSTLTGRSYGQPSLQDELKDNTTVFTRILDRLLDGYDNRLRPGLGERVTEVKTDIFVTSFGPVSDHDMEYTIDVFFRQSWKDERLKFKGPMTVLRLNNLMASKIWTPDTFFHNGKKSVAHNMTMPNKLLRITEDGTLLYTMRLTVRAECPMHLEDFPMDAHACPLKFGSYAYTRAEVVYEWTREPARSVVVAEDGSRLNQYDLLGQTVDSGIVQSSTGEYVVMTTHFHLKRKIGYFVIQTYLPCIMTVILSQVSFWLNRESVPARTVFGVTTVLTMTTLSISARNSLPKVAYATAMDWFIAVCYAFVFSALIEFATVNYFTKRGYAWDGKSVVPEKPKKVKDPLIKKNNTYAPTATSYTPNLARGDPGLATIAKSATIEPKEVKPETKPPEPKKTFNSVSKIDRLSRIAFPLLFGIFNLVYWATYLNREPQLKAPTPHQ

[4] = molecular target: Sodium-dependent dopamine transporter (Homo sapiens, UniProt Q01959); experiment: Selectivity interaction (Enzyme panel (CEREP ligand profiling)) EUB0000328a SLC6A3; conditions: at 10 µM
Chain of Sodium-dependent dopamine transporter (Q01959 whole entry): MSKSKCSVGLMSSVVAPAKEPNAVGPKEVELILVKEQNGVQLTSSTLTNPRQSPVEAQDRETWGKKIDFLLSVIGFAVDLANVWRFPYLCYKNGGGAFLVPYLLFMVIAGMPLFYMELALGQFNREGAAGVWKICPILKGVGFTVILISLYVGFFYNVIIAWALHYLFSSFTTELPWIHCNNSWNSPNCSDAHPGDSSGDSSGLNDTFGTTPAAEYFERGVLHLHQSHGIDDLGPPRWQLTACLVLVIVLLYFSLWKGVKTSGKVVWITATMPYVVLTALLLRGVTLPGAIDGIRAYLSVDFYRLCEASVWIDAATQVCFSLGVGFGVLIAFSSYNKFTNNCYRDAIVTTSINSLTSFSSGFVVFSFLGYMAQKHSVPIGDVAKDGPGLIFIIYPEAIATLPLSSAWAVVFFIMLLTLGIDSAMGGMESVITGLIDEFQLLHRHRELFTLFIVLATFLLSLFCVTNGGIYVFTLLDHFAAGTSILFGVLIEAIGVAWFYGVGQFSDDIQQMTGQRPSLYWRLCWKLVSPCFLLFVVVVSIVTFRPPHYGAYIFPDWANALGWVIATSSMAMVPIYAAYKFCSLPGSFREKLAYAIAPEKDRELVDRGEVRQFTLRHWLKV

[5] = test system: Tyrosine-protein kinase ABL1 (Homo sapiens), P00519 [H396P]; experiment: Selectivity interaction (KinomeScan (DiscoverX)) EUB0000328a ABL1; conditions: at 1 µM
[6] = molecular target: Protein kinase C epsilon type (Homo sapiens) (UniProt Q02156); experiment: Selectivity interaction (KinomeScan (DiscoverX)) EUB0000328a PRKCE; conditions: at 1 µM
Chain of Protein kinase C epsilon type (Homo sapiens) (Q02156 whole entry): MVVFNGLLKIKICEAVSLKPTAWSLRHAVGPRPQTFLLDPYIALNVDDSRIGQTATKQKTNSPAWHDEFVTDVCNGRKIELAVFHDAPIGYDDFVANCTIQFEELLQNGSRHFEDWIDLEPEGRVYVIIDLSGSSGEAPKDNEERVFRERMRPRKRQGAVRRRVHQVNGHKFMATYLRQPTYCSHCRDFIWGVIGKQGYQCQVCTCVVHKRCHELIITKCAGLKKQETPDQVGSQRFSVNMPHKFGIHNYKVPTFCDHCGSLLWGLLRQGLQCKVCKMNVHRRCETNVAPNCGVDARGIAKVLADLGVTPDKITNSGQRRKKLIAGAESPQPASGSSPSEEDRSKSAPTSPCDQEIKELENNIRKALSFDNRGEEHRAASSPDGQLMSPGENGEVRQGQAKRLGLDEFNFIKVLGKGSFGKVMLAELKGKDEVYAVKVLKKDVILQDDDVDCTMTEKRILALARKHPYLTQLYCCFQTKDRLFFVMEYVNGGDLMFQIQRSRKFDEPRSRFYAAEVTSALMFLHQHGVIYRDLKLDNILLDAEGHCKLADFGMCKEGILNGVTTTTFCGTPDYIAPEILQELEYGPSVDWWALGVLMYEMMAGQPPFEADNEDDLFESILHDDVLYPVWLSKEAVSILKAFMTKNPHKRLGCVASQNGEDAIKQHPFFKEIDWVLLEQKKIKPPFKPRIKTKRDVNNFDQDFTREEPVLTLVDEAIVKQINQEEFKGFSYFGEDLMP

[7] = molecular target: Protein arginine N-methyltransferase 1 (Homo sapiens, UniProt Q99873); experiment: Selectivity interaction (Methyltransferase panel (Scintillation proximity assay (SPA))) EUB0000212b PRMT1
[8] = molecular target: T3, Histone-lysine N-methyltransferase EZH1 (Homo sapiens, UniProt Q92800); experiment: Selectivity interaction (Methyltransferase panel (Scintillation proximity assay (SPA))) EUB0000212b EZH1
T3 sequence (Q92800 whole entry): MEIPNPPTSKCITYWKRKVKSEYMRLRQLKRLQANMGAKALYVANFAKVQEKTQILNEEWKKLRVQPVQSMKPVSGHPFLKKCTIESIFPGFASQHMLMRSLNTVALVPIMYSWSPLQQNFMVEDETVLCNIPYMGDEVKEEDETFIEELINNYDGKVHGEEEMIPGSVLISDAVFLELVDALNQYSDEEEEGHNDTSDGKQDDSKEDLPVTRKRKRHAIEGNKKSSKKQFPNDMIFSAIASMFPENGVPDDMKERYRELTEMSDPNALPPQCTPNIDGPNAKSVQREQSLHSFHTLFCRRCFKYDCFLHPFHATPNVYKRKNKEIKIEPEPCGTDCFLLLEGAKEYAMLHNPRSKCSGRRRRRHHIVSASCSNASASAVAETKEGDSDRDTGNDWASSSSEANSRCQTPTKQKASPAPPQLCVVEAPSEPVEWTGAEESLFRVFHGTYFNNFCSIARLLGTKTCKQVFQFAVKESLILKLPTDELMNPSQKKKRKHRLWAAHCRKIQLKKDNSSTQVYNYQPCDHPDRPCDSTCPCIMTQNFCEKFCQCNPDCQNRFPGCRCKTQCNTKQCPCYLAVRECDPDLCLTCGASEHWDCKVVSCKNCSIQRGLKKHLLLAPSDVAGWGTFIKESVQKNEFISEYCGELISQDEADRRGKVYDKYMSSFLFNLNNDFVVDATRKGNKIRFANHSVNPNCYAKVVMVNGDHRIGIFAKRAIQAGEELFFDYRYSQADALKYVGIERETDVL

[9] = molecular target: Protein arginine N-methyltransferase 6 (Homo sapiens, UniProt Q96LA8); experiment: Selectivity interaction (Methyltransferase panel (Scintillation proximity assay (SPA))) EUB0000212b PRMT6
[10] = molecular target: DNA (cytosine-5)-methyltransferase 1 (Homo sapiens, UniProt P26358); experiment: Selectivity interaction (Methyltransferase panel (Scintillation proximity assay (SPA))) EUB0000212b DNMT1
[11] = molecular target: Histone-lysine N-methyltransferase KMT5B (Homo sapiens, UniProt Q4FZB7); experiment: Selectivity interaction (Methyltransferase panel (Scintillation proximity assay (SPA))) EUB0000212b SUV420H1
Chain of Histone-lysine N-methyltransferase KMT5B (Q4FZB7 whole entry): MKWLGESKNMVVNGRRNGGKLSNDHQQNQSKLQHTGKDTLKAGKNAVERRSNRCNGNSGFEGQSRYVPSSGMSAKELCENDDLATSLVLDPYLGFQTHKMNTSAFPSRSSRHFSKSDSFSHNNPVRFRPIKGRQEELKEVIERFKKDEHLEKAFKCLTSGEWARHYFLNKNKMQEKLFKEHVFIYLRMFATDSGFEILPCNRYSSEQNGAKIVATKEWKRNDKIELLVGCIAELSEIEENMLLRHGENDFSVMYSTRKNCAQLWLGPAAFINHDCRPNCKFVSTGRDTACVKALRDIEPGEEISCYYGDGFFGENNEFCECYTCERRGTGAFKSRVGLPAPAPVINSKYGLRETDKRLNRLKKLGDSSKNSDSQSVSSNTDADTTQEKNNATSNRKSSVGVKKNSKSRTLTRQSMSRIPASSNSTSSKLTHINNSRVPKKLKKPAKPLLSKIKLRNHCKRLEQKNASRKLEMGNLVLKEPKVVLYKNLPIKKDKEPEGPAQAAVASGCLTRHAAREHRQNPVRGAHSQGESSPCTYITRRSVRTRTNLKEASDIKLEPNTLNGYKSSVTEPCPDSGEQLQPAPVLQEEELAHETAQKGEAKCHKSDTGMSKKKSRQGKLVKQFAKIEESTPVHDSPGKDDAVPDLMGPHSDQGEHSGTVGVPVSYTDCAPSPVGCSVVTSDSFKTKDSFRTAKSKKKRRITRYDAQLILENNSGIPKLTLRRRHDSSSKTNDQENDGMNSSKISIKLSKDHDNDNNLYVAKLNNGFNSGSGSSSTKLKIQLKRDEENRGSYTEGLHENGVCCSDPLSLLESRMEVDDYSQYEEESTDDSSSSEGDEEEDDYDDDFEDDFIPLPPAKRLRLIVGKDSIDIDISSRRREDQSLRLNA

[12] = molecular target: Histone-lysine N-methyltransferase SMYD3 (Homo sapiens, UniProt Q9H7B4); experiment: Selectivity interaction (Methyltransferase panel (Scintillation proximity assay (SPA))) EUB0000212b SMYD3
[13] = molecular target: Histone-lysine N-methyltransferase KMT5C (Homo sapiens, UniProt Q86Y97); experiment: Selectivity interaction (Methyltransferase panel (Scintillation proximity assay (SPA))) EUB0000212b SUV420H2
Chain of Histone-lysine N-methyltransferase KMT5C (Q86Y97 whole entry): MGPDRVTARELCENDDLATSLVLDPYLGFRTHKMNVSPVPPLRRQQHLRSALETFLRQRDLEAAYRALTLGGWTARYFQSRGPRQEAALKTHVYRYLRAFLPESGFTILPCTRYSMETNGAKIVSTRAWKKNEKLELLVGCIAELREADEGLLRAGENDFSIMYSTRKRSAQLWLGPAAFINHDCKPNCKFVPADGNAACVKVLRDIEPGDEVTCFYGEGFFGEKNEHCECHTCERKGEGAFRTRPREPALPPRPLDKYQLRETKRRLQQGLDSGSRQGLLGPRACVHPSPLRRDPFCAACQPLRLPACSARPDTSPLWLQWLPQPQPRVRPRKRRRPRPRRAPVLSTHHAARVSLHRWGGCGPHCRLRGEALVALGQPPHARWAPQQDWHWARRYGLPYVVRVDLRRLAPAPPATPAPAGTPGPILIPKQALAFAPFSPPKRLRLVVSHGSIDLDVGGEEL

[14] = molecular target: Protein arginine N-methyltransferase 5 (Homo sapiens, UniProt O14744); experiment: Selectivity interaction (Methyltransferase panel (Scintillation proximity assay (SPA))) EUB0000212b PRMT5
[15] = molecular target: Protein arginine N-methyltransferase 3 (Homo sapiens, UniProt O60678); experiment: Selectivity interaction (Methyltransferase panel (Scintillation proximity assay (SPA))) EUB0000212b PRMT3
Chain of Protein arginine N-methyltransferase 3 (O60678 whole entry): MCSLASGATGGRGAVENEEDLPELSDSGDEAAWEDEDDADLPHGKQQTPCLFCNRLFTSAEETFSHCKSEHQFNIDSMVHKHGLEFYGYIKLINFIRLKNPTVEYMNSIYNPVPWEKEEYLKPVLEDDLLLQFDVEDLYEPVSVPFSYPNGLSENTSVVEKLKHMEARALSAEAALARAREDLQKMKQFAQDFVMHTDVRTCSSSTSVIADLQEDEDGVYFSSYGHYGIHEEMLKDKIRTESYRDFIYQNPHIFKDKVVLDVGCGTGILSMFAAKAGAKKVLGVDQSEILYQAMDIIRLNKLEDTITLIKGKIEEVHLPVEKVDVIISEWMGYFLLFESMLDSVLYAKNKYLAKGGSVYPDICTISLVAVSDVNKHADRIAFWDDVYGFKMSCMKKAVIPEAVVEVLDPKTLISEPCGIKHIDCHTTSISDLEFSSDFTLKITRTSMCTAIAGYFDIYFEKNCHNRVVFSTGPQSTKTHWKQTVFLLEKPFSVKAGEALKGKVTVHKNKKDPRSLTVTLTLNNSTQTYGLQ

[16] = molecular target: T4, N-lysine methyltransferase KMT5A (Homo sapiens, UniProt Q9NQR1); experiment: Selectivity interaction (Methyltransferase panel (Scintillation proximity assay (SPA))) EUB0000212b SETD8
T4 sequence (Q9NQR1 whole entry): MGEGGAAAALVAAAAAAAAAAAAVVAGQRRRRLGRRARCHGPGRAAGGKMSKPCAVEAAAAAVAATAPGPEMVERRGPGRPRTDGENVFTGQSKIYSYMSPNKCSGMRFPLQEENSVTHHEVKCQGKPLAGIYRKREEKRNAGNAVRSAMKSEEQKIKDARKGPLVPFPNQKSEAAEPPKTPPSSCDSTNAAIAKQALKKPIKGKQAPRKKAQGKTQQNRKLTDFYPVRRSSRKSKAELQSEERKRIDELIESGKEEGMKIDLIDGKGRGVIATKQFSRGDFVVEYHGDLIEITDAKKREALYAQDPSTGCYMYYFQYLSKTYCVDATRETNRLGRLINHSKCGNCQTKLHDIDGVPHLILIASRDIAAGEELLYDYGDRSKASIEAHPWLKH

[17] = molecular target: Histone-lysine N-methyltransferase NSD2 (Homo sapiens, UniProt O96028); experiment: Selectivity interaction (Methyltransferase panel (Scintillation proximity assay (SPA))) EUB0000212b NSD2
[18] = molecular target: Histone-lysine N-methyltransferase SETDB1 (Homo sapiens, UniProt Q15047); experiment: Selectivity interaction (Methyltransferase panel (Scintillation proximity assay (SPA))) EUB0000212b SETDB1
[19] = molecular target: Histone-lysine N-methyltransferase 2A (Homo sapiens, UniProt Q03164); experiment: Selectivity interaction (Methyltransferase panel (Scintillation proximity assay (SPA))) EUB0000212b MLL
[20] = molecular target: T5, Histone-lysine N-methyltransferase SETD7 (Homo sapiens, UniProt Q8WTS6); experiment: Selectivity interaction (Methyltransferase panel (Scintillation proximity assay (SPA))) EUB0000212b SETD7
T5 sequence (Q8WTS6 whole entry): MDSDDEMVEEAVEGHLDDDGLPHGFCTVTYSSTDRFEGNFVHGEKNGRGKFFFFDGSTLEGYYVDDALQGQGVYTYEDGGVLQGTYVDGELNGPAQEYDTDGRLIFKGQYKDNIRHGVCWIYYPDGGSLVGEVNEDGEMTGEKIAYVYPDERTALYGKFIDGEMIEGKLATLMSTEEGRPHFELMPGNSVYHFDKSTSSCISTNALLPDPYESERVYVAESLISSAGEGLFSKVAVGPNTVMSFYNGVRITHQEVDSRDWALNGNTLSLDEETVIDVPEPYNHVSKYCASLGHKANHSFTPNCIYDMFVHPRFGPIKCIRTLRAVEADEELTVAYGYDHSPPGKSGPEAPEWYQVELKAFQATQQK

[21] = molecular target: Histone-lysine N-methyltransferase SUV39H2 (Homo sapiens, UniProt Q9H5I1); experiment: Selectivity interaction (Methyltransferase panel (Scintillation proximity assay (SPA))) EUB0000212b SUV39H2
Chain of Histone-lysine N-methyltransferase SUV39H2 (Q9H5I1 whole entry): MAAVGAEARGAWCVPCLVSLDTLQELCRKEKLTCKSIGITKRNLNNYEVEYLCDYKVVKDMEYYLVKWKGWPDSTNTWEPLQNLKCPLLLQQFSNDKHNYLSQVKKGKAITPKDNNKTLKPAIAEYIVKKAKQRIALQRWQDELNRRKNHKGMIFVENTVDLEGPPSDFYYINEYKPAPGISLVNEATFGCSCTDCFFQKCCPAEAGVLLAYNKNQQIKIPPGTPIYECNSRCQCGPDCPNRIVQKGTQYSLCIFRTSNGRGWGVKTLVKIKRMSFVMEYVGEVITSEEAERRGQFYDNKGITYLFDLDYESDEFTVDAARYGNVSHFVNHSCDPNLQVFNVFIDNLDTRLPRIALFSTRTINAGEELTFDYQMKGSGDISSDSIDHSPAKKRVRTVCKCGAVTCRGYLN

[22] = molecular target: Histone-lysine N-methyltransferase NSD3 (Homo sapiens, UniProt Q9BZ95); experiment: Selectivity interaction (Methyltransferase panel (Scintillation proximity assay (SPA))) EUB0000212b NSD3
[23] = molecular target: Histone-lysine N-methyltransferase, H3 lysine-79 specific (Homo sapiens, UniProt Q8TEK3); experiment: Selectivity interaction (Methyltransferase panel (Scintillation proximity assay (SPA))) EUB0000212b DOT1L
[24] = molecular target: Histone-lysine N-methyltransferase EZH2 (Homo sapiens, UniProt Q15910); experiment: Selectivity interaction (Methyltransferase panel (Scintillation proximity assay (SPA))) EUB0000212b EZH2
Chain of Histone-lysine N-methyltransferase EZH2 (Q15910 whole entry): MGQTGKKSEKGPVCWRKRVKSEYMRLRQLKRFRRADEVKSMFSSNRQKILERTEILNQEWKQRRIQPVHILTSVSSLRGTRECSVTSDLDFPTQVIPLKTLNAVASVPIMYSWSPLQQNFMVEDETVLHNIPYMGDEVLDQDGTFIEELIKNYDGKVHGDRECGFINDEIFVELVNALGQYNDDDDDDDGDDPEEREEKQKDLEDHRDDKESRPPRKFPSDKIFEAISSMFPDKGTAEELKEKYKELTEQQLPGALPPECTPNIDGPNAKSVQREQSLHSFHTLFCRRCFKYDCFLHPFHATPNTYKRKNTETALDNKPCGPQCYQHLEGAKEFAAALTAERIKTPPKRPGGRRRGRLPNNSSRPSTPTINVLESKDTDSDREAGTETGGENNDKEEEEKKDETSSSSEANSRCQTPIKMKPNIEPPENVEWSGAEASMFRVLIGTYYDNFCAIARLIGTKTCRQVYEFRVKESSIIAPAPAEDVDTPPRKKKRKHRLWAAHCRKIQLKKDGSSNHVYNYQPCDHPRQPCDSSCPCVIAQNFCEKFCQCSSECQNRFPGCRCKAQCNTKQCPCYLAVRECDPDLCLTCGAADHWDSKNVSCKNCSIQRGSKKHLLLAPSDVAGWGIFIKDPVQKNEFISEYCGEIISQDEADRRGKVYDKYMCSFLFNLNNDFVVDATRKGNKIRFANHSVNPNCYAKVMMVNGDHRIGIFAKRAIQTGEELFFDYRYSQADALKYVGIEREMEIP

[25] = molecular target: Protein arginine N-methyltransferase 8 (Homo sapiens, UniProt Q9NR22); experiment: Selectivity interaction (Methyltransferase panel (Scintillation proximity assay (SPA))) EUB0000212b PRMT8
Chain of Protein arginine N-methyltransferase 8 (Q9NR22 whole entry): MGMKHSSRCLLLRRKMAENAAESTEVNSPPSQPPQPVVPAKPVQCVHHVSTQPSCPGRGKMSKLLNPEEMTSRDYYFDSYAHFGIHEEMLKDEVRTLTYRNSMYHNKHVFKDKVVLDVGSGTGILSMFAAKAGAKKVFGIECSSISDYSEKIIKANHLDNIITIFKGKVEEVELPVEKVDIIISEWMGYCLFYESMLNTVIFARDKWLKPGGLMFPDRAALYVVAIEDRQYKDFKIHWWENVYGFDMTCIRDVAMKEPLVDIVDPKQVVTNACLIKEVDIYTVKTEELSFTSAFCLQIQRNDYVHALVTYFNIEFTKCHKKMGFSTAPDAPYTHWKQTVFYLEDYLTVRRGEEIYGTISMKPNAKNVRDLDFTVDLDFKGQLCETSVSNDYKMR

% of control [1]: 47%
% of inhibition [2]: 99%
Ki [3]: 1110 nM
% of inhibition [4]: 94%
% of control [5]: 49%
% of control [6]: 22%
SMILES: CNC(=O)Nc1ccc2c(c1)CC[C@@]21OC(=O)N(CC(=O)N(Cc2ccc(F)cc2)[C@@H](C)C(F)(F)F)C1=O [A-485]

EC50 [7]: > 50 µM
EC50 [8]: > 50 µM
EC50 [9]: > 50 µM
EC50 [10]: > 50 µM
EC50 [11]: > 50 µM
EC50 [12]: > 50 µM
EC50 [13]: > 50 µM
EC50 [14]: > 50 µM
EC50 [15]: > 50 µM
EC50 [16]: > 50 µM
EC50 [17]: > 50 µM
EC50 [18]: > 50 µM
EC50 [19]: > 50 µM
EC50 [20]: > 50 µM
EC50 [21]: > 50 µM
EC50 [22]: > 50 µM
EC50 [23]: > 50 µM
EC50 [24]: > 50 µM
EC50 [25]: > 50 µM
SMILES: COc1cc2c(cc1OCCCN1CCCC1)N=C(N)C21CCC1
